Laboratory results reported in patent publication US20140187786A1, “1,3,4-TRISUBSTITUTED BENZENES” (EnVivo Pharmaceuticals, Inc., priority 2007, published 2014).

Compound: CC(C)CC(C(=O)O)c1ccc(-c2ccc(C(F)(F)F)cc2)c(OCC2CC2)c1 (stereo not shown) [Example 142, 2-(2-cyclopropylmethoxy-4′-trifluoromethyl-biphenyl-4-yl)-4-methyl-pentanoic acid]
- melting point: 142 to 143 °C
